Data reported in patent US20240207427A1, “SELECTIVE DRUG RELEASE FROM INTERNALIZED CONJUGATES OF BIOLOGICALLY ACTIVE COMPOUNDS” (priority 2021, published 2024).
Like-named read-outs stand apart in the source and are kept apart here.

Legend:
Assay type in all cases: cell-based
[1] = system: anaplastic large cell lymphoma cells (DEL); experiment: In vitro potency (CellTiter-Glo, 96 h), DEL
Experimental: (§1) In vitro potency was assessed on multiple cancer cell lines. All cell lines were authenticated by STR profiling at IDEXX Bioresearch and cultured for no more than 2 months after resuscitation. Cells cultured in log-phase growth were seeded for 24 hours in 96-well plates containing […] RPMI 1640 supplemented with 20% FBS. Serial dilutions of antibody-drug conjugates in cell culture media were prepared at 4× working concentrations, and 50 μL of each dilution was added to the 96-well plates. Following addition of test articles, cells were incubated with test articles for 4 days at 37 0° C. After 96 hours, growth inhibition was assessed by CellTiterGlo® (Promega, Madison, WI) and luminescence was measured on a plate reader.
(§2) In Table 7, IC50 values for ADCs are given in ng/mL. Cell viability was determined by CellTiter-Glo staining after 96 h exposure to ADC. ND=Not Determined. Ag2 is an antibody targeting a ubiquitous and readily internalizable antigen. The cancer cell lines tested are renal carcinoma cells (786-0), melanoma cells (A2058), pancreatic cancer cells (BxPC3), non-small-cell lung cancer cells (Calu1), anaplastic large cell lymphoma cells (DEL, DELBVR, Karpas299), Hodgkin's lymphoma cells (L540cy), (Ls174T), breast cancer cells (MDA-MB-231), acute myeloid leukemia cells (MOLM-13), and B-lymphocyte cancer cells (SU-DHL4).
(§3) In vitro potency was assessed on multiple cancer cell lines. All cell lines were authenticated by STR profiling at IDEXX Bioresearch and cultured for no more than 2 months after resuscitation. Cells cultured in log-phase growth were seeded for 24 hours in 96-well plates containing […] RPMI 1640 supplemented with 20% FBS. Following addition of test articles, cells were incubated with test articles for 4 days at 37 0° C. After 96 hours, growth inhibition was assessed by CellTiterGlo® (Promega, Madison, WI) and luminescence was measured on a plate reader.
(§4) Cell viability was determined by CellTiter-Glo staining after 96 h exposure to the compound. ND=Not Determined. The cancer cell lines tested are renal carcinoma cells (786-0), melanoma cells (A2058), pancreatic cancer cells (BxPC3), non-small-cell lung cancer cells (Calu1), anaplastic large cell lymphoma cells (DEL, DELBVR, Karpas299), Hodgkin's lymphoma cells (L540cy), (Ls 174T), breast cancer cells (MDA-MB-231), acute myeloid leukemia cells (MOLM-13), B-lymphocyte cancer cells (SU-DHL4), multiple myeloma cells (MM.1R), (U266), and melanoma cells (SK-MEL-5).
as §1, with “37°” for “37 0°”
(§5) In the following Tables IC50 values for ADCs and CPT free drugs are given in ng/mL and nmol/L concentrations. Cell viability was determined by CellTiter-Glo staining after 96 h exposure to ADC or CPT free drug.
(§6) Cell viability was determined by CellTiter-Glo staining after 96 h exposure to ADC. ND=Not Determined.

[2] = system: Hodgkin's lymphoma cells (L540cy); experiment: In vitro potency (CellTiter-Glo, 96 h), L540cy
Experimental: as §1, §2, §3, §4
as §1, with “37°” for “37 0°”
as §5, §6

[3] = system: acute myeloid leukemia cells (MOLM-13); experiment: In vitro potency (CellTiter-Glo, 96 h), MOLM-13; details: Homo sapiens, MOLM-13, 96 h, CPT free drugs, acute myeloid leukemia cells MOLM-13, 96 h, CellTiter-Glo
Experimental: as §1, §2, §3, §4
as §1, with “37°” for “37 0°”
as §5, §6

[4] = system: breast cancer cells (MDA-MB-231); experiment: In vitro potency (CellTiter-Glo, 96 h), MDA-MB-231; details: Homo sapiens, MDA-MB-231, 96 h, CPT free drugs, breast cancer cells MDA-MB-231, 96 h, CellTiter-Glo
Experimental: as §1, §2, §3, §4
as §1, with “37°” for “37 0°”
as §5, §6

[5] = system: pancreatic cancer cells (BxPC3); experiment: In vitro potency (CellTiter-Glo, 96 h), BxPC3; details: Homo sapiens, BXPC-3, 96 h, CPT free drugs, pancreatic cancer cells BxPC3, 96 h, CellTiter-Glo
Experimental: as §1, §2, §3, §4
as §1, with “37°” for “37 0°”
as §5, §6

Ls174T cells = experiment: In vitro potency (CellTiter-Glo, 96 h), Ls174T; details: Homo sapiens, 96 h, CPT free drugs, Ls174T cells, 96 h, CellTiter-Glo
Experimental: as §1, §2, §3, §4
as §1, with “37°” for “37 0°”
as §5, §6

[6] = system: B-lymphocyte cancer cells (SU-DHL4); experiment: In vitro potency (CellTiter-Glo, 96 h), SU-DHL-4; details: Homo sapiens, SU-DHL-4, 96 h, CPT free drugs, B-lymphocyte cancer cells SU-DHL4, 96 h, CellTiter-Glo
Experimental: as §1, §2, §3, §4
as §1, with “37°” for “37 0°”
as §5, §6

[7] = system: anaplastic large cell lymphoma cells (Karpas299); experiment: In vitro potency (CellTiter-Glo, 96 h), Karpas299; details: Homo sapiens, KARPAS-299, 96 h, CPT free drugs, anaplastic large cell lymphoma cells Karpas299, 96 h, CellTiter-Glo
Experimental: as §1, §2, §3, §4
as §1, with “37°” for “37 0°”
as §5, §6

[8] = system: renal carcinoma cells (786-O); experiment: In vitro potency (CellTiter-Glo, 96 h), 786-O; details: Homo sapiens, 786-0, 96 h, CPT free drugs, renal carcinoma cells 786-O, 96 h, CellTiter-Glo
Experimental: as §1, §2, §3, §4
as §1, with “37°” for “37 0°”
as §5, §6

[9] = system: anaplastic large cell lymphoma cells (DELBVR); experiment: In vitro potency (CellTiter-Glo, 96 h), DELBVR
Experimental: as §1, §2, §3, §4
as §1, with “37°” for “37 0°”
as §5, §6

[10] = read-out: DEL IC50, Table 29, CPT free drugs, anaplastic large cell lymphoma cells DEL, CellTiter-Glo
[11] = read-out: L540cy IC50, Table 29, CPT free drugs, Hodgkin's lymphoma cells L540cy, CellTiter-Glo
[12] = read-out: MOLM-13 IC50, Table 29
[13] = read-out: MDAMB231 IC50, Table 29
[14] = LS174T, read-out: Ls174T IC50, Table 29
[15] = read-out: SU-DHL-4 IC50, Table 29
[16] = read-out: Karpas299 IC50, Table 29
[17] = read-out: DELBVR IC50, Table 29, CPT free drugs, anaplastic large cell lymphoma cells DELBVR, CellTiter-Glo
[18] = read-out: MOLM-13 IC50, Table 28
[19] = read-out: DEL IC50, Table 28, CPT free drugs, anaplastic large cell lymphoma cells DEL, CellTiter-Glo
[20] = read-out: L540cy IC50, Table 28, CPT free drugs, Hodgkin's lymphoma cells L540cy, CellTiter-Glo
[21] = read-out: MDAMB231 IC50, Table 28
[22] = LS174T, read-out: Ls174T IC50, Table 28
[23] = read-out: SU-DHL-4 IC50, Table 28
[24] = read-out: Karpas299 IC50, Table 28
[25] = read-out: DELBVR IC50, Table 28, CPT free drugs, anaplastic large cell lymphoma cells DELBVR, CellTiter-Glo

Row | SMILES | IC50 [1, 10] | IC50 [2, 11] | IC50 [3, 12] | IC50 [4, 13] | IC50 ([5]; read-out: BxPC3 IC50, Table 29) | IC50 (Ls174T cells; [14]) | IC50 [6, 15] | IC50 [7, 16] | IC50 ([8]; read-out: 786-O IC50, Table 29) | IC50 [9, 17] | IC50 [3, 18] | further results
1 | CC[C@@]1(O)C(=O)OCc2c1cc1n(c2=O)Cc2c-1nc1cc3c(cc1c2CN1CCN(CCN)CC1)OCO3 [Compound 8c] | 3 nM | 14 nM | 69 nM | 57 nM | 14 nM | 32 nM | 7 nM | 28 nM | 27 nM | 4 nM |  | 
2 | CC[C@@]1(O)C(=O)OCc2c1cc1n(c2=O)Cc2c-1nc1cc3c(cc1c2CN)COC3 [Compound 2ak] |  |  |  |  |  |  |  |  |  |  | 129 nM | IC50 ([1]; Table 28, CPT free drugs, anaplastic large cell lymphoma cells DEL, CellTiter-Glo, read-out: DEL IC50): 6 nM; IC50 ([2]; Table 28, CPT free drugs, Hodgkin's lymphoma cells L540cy, CellTiter-Glo, read-out: L540cy IC50): 22 nM; IC50 ([4]; Table 28, read-out: MDAMB231 IC50): 147 nM; IC50 ([5]; Table 28, read-out: BxPC3 IC50): 88 nM; IC50 (Ls174T cells; Table 28, read-out: Ls174T IC50): 50 nM; IC50 ([6]; Table 28, read-out: SU-DHL-4 IC50): 11 nM; IC50 ([7]; Table 28, read-out: Karpas299 IC50): 40 nM; IC50 ([8]; Table 28, read-out: 786-O IC50): 57 nM; IC50 ([9]; Table 28, CPT free drugs, anaplastic large cell lymphoma cells DELBVR, CellTiter-Glo, read-out: DELBVR IC50): 6 nM
3 | CC[C@@]1(O)C(=O)OCc2c1cc1n(c2=O)Cc2c-1nc1cc(F)c(C)c(Cl)c1c2CNC(=O)CN [Compound 13a] |  |  |  |  |  |  |  |  |  |  | 2 nM | IC50 [1, 19]: 0.3 nM; IC50 [2, 20]: 1 nM; IC50 [4, 21]: 5 nM; IC50 ([5]; read-out: BxPC3 IC50, Table 28): 5 nM; IC50 (Ls174T cells; [22]): 44 nM; IC50 [6, 23]: 1 nM; IC50 [7, 24]: 1 nM; IC50 ([8]; read-out: 786-O IC50, Table 28): 6 nM; IC50 [9, 25]: 1 nM
4 | CC[C@@]1(O)C(=O)OCc2c1cc1n(c2=O)Cc2c-1nc1cc3c(cc1c2CNC(C)=O)CCO3 [Compound 12] |  |  |  |  |  |  |  |  |  |  | 5 nM | IC50 [1, 19]: 1 nM; IC50 [2, 20]: 5 nM; IC50 [4, 21]: 27 nM; IC50 ([5]; read-out: BxPC3 IC50, Table 28): 12 nM; IC50 (Ls174T cells; [22]): 19 nM; IC50 [6, 23]: 1 nM; IC50 [7, 24]: 24 nM; IC50 ([8]; read-out: 786-O IC50, Table 28): 13 nM; IC50 [9, 25]: 1 nM
5 | CC[C@@]1(O)C(=O)OCc2c1cc1n(c2=O)Cc2c-1nc1cc3c(cc1c2CNCCCN1CCNCC1)OCO3 [Compound 8d] | 2 nM | 6 nM | 37 nM | 25 nM | 14 nM | 19 nM | 6 nM | 9 nM | 15 nM | 2 nM |  | 
6 | CC[C@@]1(O)C(=O)OCc2c1cc1n(c2=O)Cc2c-1nc1cc3c(cc1c2CNC[C@H](O)CN1CCCCC1)OCO3 [Compound 7aa] | 17 nM | 51 nM | 69 nM | 228 nM | 66 nM | 188 nM | 19 nM | 63 nM | 131 nM | 19 nM |  | 
7 | CC[C@@]1(O)C(=O)OCc2c1cc1n(c2=O)Cc2c-1nc1cc3c(cc1c2CNC1CCN(C)CC1)OCO3 [Compound 7w] | 2 nM | 6 nM | 26 nM | 26 nM | 13 nM | 16 nM | 6 nM | 8 nM | 15 nM | 2 nM |  | 
8 | CC[C@@]1(O)C(=O)OCc2c1cc1n(c2=O)Cc2c-1nc1cc3c(cc1c2CNCCCN1CCN(C)CC1)OCO3 [Compound 7h] | 5 nM | 23 nM | 93 nM | 67 nM | 43 nM | 40 nM | 21 nM | 57 nM | 44 nM | 6 nM |  | 
